From patent publication US20220169628A1 (University of Florida Research Foundation, Incorporated, priority 2019, published 2022) come the findings set out here.

One assay concerns RS4;11 cells. As to the kind of experiment: Cell viability assay, MTS, 48 h, RS4;11. To be noted: 48 hours, read-out: IC50 (48 hours) RS4;11. The class given is cell-based. As to the method: (§1) Acute lymphoblastic leukemia cells (MOLT-4 and RS4; 11) or small cell lung cancer (NCI-H146 or simply H146) were incubated with increasing concentrations of Bcl-xL degraders for 48 h. Cell viability was measured by tetrazolium-based MTS assay.

Another assay relates to MOLT-4 cells. As to the kind of experiment: Cell viability assay, MTS, 48 h, MOLT-4. The format is cell-based. To be noted: 48 hours, read-out: IC50 (48 hours) MOLT-4. As to the method: as §1

Like-named read-outs stand apart in the source and are kept apart here.

In the case of `Cc1ncsc1-c1ccc([C@H](C)NC(=O)[C@@H]2C[C@@H](O)CN2C(=O)[C@@H](NC(=O)CN2CCN(CC3(C)CCC(c4ccc(Cl)cc4)=C(CN4CCN(c5ccc(C(=O)NS(=O)(=O)c6ccc(N[C@H](CCN7CCOCC7)CSc7ccccc7)c(S(=O)(=O)C(F)(F)F)c6)cc5)CC4)C3)CC2)C(C)(C)C)cc1` (stereo partly drawn) [compound 67, (2S,4R)-1-((2S)-2-(2-(4-((4′-chloro-4-methyl-6-((4-(4-(((4-(((R)-4-morpholino-1-(phenylthio)butan-2-yl)amino)-3-((trifluoromethyl)sulfonyl)phenyl)sulfonyl)carbamoyl)phenyl)piperazin-1-yl)methyl)-2,3,4,5-tetrahydro-[1,1′-biphenyl]-4-yl)methyl)piperazin-1-yl)acetamido)-3,3-dimethylbutanoyl)-4-hydroxy-N—((S)-1-(4-(4-methylthiazol-5-yl)phenyl)ethyl)pyrrolidine-2-carboxamide], the IC50 fell in the range of 50 to 150 nM with RS4;11 cells (Homo sapiens, RS4-11, 48 h) and 50 to 150 nM in the assay on MOLT-4 cells (Homo sapiens, MOLT-4, 48 h).
For the compound `Cc1ncsc1-c1ccc([C@H](C)NC(=O)[C@@H]2C[C@@H](O)CN2C(=O)[C@@H](NC(=O)CCCN2CCN(CC3(C)CCC(c4ccc(Cl)cc4)=C(CN4CCN(c5ccc(C(=O)NS(=O)(=O)c6ccc(N[C@H](CCN7CCOCC7)CSc7ccccc7)c(S(=O)(=O)C(F)(F)F)c6)cc5)CC4)C3)CC2)C(C)(C)C)cc1` (stereo partly drawn) [compound 68, (2S,4R)-1-((2S)-2-(4-(4-((4′-chloro-4-methyl-6-((4-(4-(((4-(((R)-4-morpholino-1-(phenylthio)butan-2-yl)amino)-3-((trifluoromethyl)sulfonyl)phenyl)sulfonyl)carbamoyl)phenyl)piperazin-1-yl)methyl)-2,3,4,5-tetrahydro-[1,1′-biphenyl]-4-yl)methyl)piperazin-1-yl)butanamido)-3,3-dimethylbutanoyl)-4-hydroxy-N—((S)-1-(4-(4-methylthiazol-5-yl)phenyl)ethyl)pyrrolidine-2-carboxamide], the IC50 is 150 to 500 nM in the assay with RS4;11 cells (Homo sapiens, RS4-11, 48 h) and more than 500 nM with MOLT-4 cells (Homo sapiens, MOLT-4, 48 h).
In the case of `Cc1ncsc1-c1ccc([C@H](C)NC(=O)[C@@H]2C[C@@H](O)CN2C(=O)[C@@H](NC(=O)CCCCCN2CCN(CC3(C)CCC(c4ccc(Cl)cc4)=C(CN4CCN(c5ccc(C(=O)NS(=O)(=O)c6ccc(N[C@H](CCN7CCOCC7)CSc7ccccc7)c(S(=O)(=O)C(F)(F)F)c6)cc5)CC4)C3)CC2)C(C)(C)C)cc1` (stereo partly drawn) [compound 69, (2S,4R)-1-((2S)-2-(6-(4-((4′-chloro-4-methyl-6-((4-(4-(((4-(((R)-4-morpholino-1-(phenylthio)butan-2-yl)amino)-3-((trifluoromethyl)sulfonyl)phenyl)sulfonyl)carbamoyl)phenyl)piperazin-1-yl)methyl)-2,3,4,5-tetrahydro-[1,1′-biphenyl]-4-yl)methyl)piperazin-1-yl)hexanamido)-3,3-dimethylbutanoyl)-4-hydroxy-N—((S)-1-(4-(4-methylthiazol-5-yl)phenyl)ethyl)pyrrolidine-2-carboxamide], the IC50 with RS4;11 cells and with MOLT-4 cells was 50 to 150 nM each time.
In the case of `CC1(CNC(=O)CCCCNc2cccc3c2C(=O)N(C2CCC(=O)NC2=O)C3=O)CCC(c2ccc(Cl)cc2)=C(CN2CCN(c3ccc(C(=O)NS(=O)(=O)c4ccc(N[C@H](CCN5CCOCC5)CSc5ccccc5)c(S(=O)(=O)C(F)(F)F)c4)cc3)CC2)C1` (stereo partly drawn) [compound 70, 4-(4-((4′-chloro-4-((5-((2-(2,6-dioxopiperidin-3-yl)-1,3-dioxoisoindolin-4-yl)amino)pentanamido)methyl)-4-methyl-3,4,5,6-tetrahydro-[1,1′-biphenyl]-2-yl)methyl)piperazin-1-yl)-N-((4-(((R)-4-morpholino-1-(phenylthio)butan-2-yl)amino)-3-((trifluoromethyl)sulfonyl)phenyl)sulfonyl)benzamide], the IC50 in the assay with RS4;11 cells (Homo sapiens, RS4-11, 48 h) was 50 to 150 nM; in the assay on MOLT-4 cells (Homo sapiens, MOLT-4, 48 h), 50 to 150 nM.
Turning to `CC1(CNC(=O)CCCCCNc2cccc3c2C(=O)N(C2CCC(=O)NC2=O)C3=O)CCC(c2ccc(Cl)cc2)=C(CN2CCN(c3ccc(C(=O)NS(=O)(=O)c4ccc(N[C@H](CCN5CCOCC5)CSc5ccccc5)c(S(=O)(=O)C(F)(F)F)c4)cc3)CC2)C1` (stereo partly drawn) [compound 71, 4-(4-((4′-chloro-4-((6-((2-(2,6-dioxopiperidin-3-yl)-1,3-dioxoisoindolin-4-yl)amino)hexanamido)methyl)-4-methyl-3,4,5,6-tetrahydro-[1,1′-biphenyl]-2-yl)methyl)piperazin-1-yl)-N-((4-(((R)-4-morpholino-1-(phenylthio)butan-2-yl)amino)-3-((trifluoromethyl)sulfonyl)phenyl)sulfonyl)benzamide], the IC50 in the assay with RS4;11 cells (Homo sapiens, RS4-11, 48 h) was less than 50 nM; with MOLT-4 cells (Homo sapiens, MOLT-4, 48 h) it was less than 50 nM.
Consider `CC1(CNC(=O)CCCCCCNc2cccc3c2C(=O)N(C2CCC(=O)NC2=O)C3=O)CCC(c2ccc(Cl)cc2)=C(CN2CCN(c3ccc(C(=O)NS(=O)(=O)c4ccc(N[C@H](CCN5CCOCC5)CSc5ccccc5)c(S(=O)(=O)C(F)(F)F)c4)cc3)CC2)C1` (stereo partly drawn) [compound 72, 4-(4-((4′-chloro-4-((7-((2-(2,6-dioxopiperidin-3-yl)-1,3-dioxoisoindolin-4-yl)amino)heptanamido)methyl)-4-methyl-3,4,5,6-tetrahydro-[1,1′-biphenyl]-2-yl)methyl)piperazin-1-yl)-N-((4-(((R)-4-morpholino-1-(phenylthio)butan-2-yl)amino)-3-((trifluoromethyl)sulfonyl)phenyl)sulfonyl)benzamide], for which the IC50 in the assay with RS4;11 cells (Homo sapiens, RS4-11, 48 h) is less than 50 nM; with MOLT-4 cells (Homo sapiens, MOLT-4, 48 h), less than 50 nM.
For `CC1(CNC(=O)CCCCCCCNc2cccc3c2C(=O)N(C2CCC(=O)NC2=O)C3=O)CCC(c2ccc(Cl)cc2)=C(CN2CCN(c3ccc(C(=O)NS(=O)(=O)c4ccc(N[C@H](CCN5CCOCC5)CSc5ccccc5)c(S(=O)(=O)C(F)(F)F)c4)cc3)CC2)C1` (stereo partly drawn) [compound 73, 4-(4-((4′-chloro-4-((8-((2-(2,6-dioxopiperidin-3-yl)-1,3-dioxoisoindolin-4-yl)amino)octanamido)methyl)-4-methyl-3,4,5,6-tetrahydro-[1,1′-biphenyl]-2-yl)methyl)piperazin-1-yl)-N-((4-(((R)-4-morpholino-1-(phenylthio)butan-2-yl)amino)-3-((trifluoromethyl)sulfonyl)phenyl)sulfonyl)benzamide], the IC50 with RS4;11 cells (Homo sapiens, RS4-11, 48 h) was less than 50 nM; in the assay on MOLT-4 cells (Homo sapiens, MOLT-4, 48 h), less than 50 nM.
In the case of `CC1(CNC(=O)CCCCCCCCNc2cccc3c2C(=O)N(C2CCC(=O)NC2=O)C3=O)CCC(c2ccc(Cl)cc2)=C(CN2CCN(c3ccc(C(=O)NS(=O)(=O)c4ccc(N[C@H](CCN5CCOCC5)CSc5ccccc5)c(S(=O)(=O)C(F)(F)F)c4)cc3)CC2)C1` (stereo partly drawn) [compound 74, 4-(4-((4′-chloro-4-((9-((2-(2,6-dioxopiperidin-3-yl)-1,3-dioxoisoindolin-4-yl)amino)nonanamido)methyl)-4-methyl-3,4,5,6-tetrahydro-[1,1′-biphenyl]-2-yl)methyl)piperazin-1-yl)-N-((4-(((R)-4-morpholino-1-(phenylthio)butan-2-yl)amino)-3-((trifluoromethyl)sulfonyl)phenyl)sulfonyl)benzamide], the IC50 is 50 to 150 nM in the assay on RS4;11 cells (Homo sapiens, RS4-11, 48 h) and less than 50 nM in the assay with MOLT-4 cells (Homo sapiens, MOLT-4, 48 h).
`CC1(CNC(=O)CCCCCCCCCCNc2cccc3c2C(=O)N(C2CCC(=O)NC2=O)C3=O)CCC(c2ccc(Cl)cc2)=C(CN2CCN(c3ccc(C(=O)NS(=O)(=O)c4ccc(N[C@H](CCN5CCOCC5)CSc5ccccc5)c(S(=O)(=O)C(F)(F)F)c4)cc3)CC2)C1` (stereo partly drawn) [compound 75, 4-(4-((4′-chloro-4-((11-((2-(2,6-dioxopiperidin-3-yl)-1,3-dioxoisoindolin-4-yl)amino)undecanamido)methyl)-4-methyl-3,4,5,6-tetrahydro-[1,1′-biphenyl]-2-yl)methyl)piperazin-1-yl)-N-((4-(((R)-4-morpholino-1-(phenylthio)butan-2-yl)amino)-3-((trifluoromethyl)sulfonyl)phenyl)sulfonyl)benzamide]: the IC50 lay within 150 to 500 nM in the assay with RS4;11 cells (Homo sapiens, RS4-11, 48 h) and 50 to 150 nM in the assay on MOLT-4 cells (Homo sapiens, MOLT-4, 48 h).
For `CC1(CNC(=O)COCCNc2cccc3c2C(=O)N(C2CCC(=O)NC2=O)C3=O)CCC(c2ccc(Cl)cc2)=C(CN2CCN(c3ccc(C(=O)NS(=O)(=O)c4ccc(N[C@H](CCN5CCOCC5)CSc5ccccc5)c(S(=O)(=O)C(F)(F)F)c4)cc3)CC2)C1` (stereo partly drawn) [compound 76, 4-(4-((4′-chloro-4-((2-(2-((2-(2,6-dioxopiperidin-3-yl)-1,3-dioxoisoindolin-4-yl)amino)ethoxy)acetamido)methyl)-4-methyl-3,4,5,6-tetrahydro-[1,1′-biphenyl]-2-yl)methyl)piperazin-1-yl)-N-((4-(((R)-4-morpholino-1-(phenylthio)butan-2-yl)amino)-3-((trifluoromethyl)sulfonyl)phenyl)sulfonyl)benzamide], the IC50 in the assay on RS4;11 cells (Homo sapiens, RS4-11, 48 h) was 50 to 150 nM; in the assay with MOLT-4 cells (Homo sapiens, MOLT-4, 48 h) it was 50 to 150 nM.
Turning to `CC1(CNC(=O)COCCOCCNc2cccc3c2C(=O)N(C2CCC(=O)NC2=O)C3=O)CCC(c2ccc(Cl)cc2)=C(CN2CCN(c3ccc(C(=O)NS(=O)(=O)c4ccc(N[C@H](CCN5CCOCC5)CSc5ccccc5)c(S(=O)(=O)C(F)(F)F)c4)cc3)CC2)C1` (stereo partly drawn) [compound 77, 4-(4-((4′-chloro-4-((2-(2-(2-((2-(2,6-dioxopiperidin-3-yl)-1,3-dioxoisoindolin-4-yl)amino)ethoxy)ethoxy)acetamido)methyl)-4-methyl-3,4,5,6-tetrahydro-[1,1′-biphenyl]-2-yl)methyl)piperazin-1-yl)-N-((4-(((R)-4-morpholino-1-(phenylthio)butan-2-yl)amino)-3-((trifluoromethyl)sulfonyl)phenyl)sulfonyl)benzamide], the IC50 was less than 50 nM in the assay with RS4;11 cells (Homo sapiens, RS4-11, 48 h) and less than 50 nM in the assay on MOLT-4 cells (Homo sapiens, MOLT-4, 48 h).

A word on the IC50: it is the concentration at which inhibition is half-maximal.
